One series addresses T1, rat NaP2b (SLC34A2) (Rattus norvegicus, UniProt Q9JJ09).
T1 construct: host or cells: HEK293
T1 sequence (Q9JJ09 1-695): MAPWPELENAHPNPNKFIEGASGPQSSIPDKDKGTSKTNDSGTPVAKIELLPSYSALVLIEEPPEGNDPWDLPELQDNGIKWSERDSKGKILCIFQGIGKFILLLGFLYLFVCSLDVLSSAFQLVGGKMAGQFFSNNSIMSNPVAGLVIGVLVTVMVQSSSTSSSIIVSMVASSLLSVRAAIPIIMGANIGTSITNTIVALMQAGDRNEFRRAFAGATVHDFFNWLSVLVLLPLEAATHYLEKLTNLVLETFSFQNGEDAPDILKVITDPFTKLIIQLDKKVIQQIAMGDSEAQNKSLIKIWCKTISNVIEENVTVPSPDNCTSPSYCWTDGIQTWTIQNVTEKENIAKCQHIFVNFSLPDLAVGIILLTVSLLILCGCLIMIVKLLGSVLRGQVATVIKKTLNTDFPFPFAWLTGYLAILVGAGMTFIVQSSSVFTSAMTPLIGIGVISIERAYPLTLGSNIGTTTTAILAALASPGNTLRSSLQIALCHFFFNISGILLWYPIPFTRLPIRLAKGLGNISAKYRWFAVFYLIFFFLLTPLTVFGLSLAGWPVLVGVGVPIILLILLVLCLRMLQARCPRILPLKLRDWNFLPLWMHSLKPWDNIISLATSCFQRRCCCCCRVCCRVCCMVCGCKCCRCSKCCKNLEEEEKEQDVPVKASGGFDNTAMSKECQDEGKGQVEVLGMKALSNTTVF
The series can be described thus: Inhibition of NaP2b-mediated Pi (33P) uptake in transfected HEK293 cells, rat NaP2b. The series is classed as cell-based. Particulars: 33P Pi uptake, 0.1 mM phosphate, value given as pIC50 range. An outline of the steps: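 HEK293 cells were transiently transfected with NaP2b cDNA using Lipofectamine and grown near confluence. Compounds were tested at twelve concentrations from 0.1 nM to 30 uM in duplicate, and 33P-phosphate uptake was counted by scintillation after lysis. Results are expressed as pIC50.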

Series [1] in a line: Stability of compounds in simulated intestinal fluid (SIF). Format: in vitro ADME. The note with it: simulated intestinal fluid (3 mg/mL pancreatin), incubation time 6 hr, relative to t=0. As for the experimental part:
(§1) Test compounds were incubated at […] in simulated gastric fluid (SGF; standard USP solution with 3 mg/mL pepsin) or simulated intestinal fluid (SIF; standard USP solution with 3 mg/mL pancreatin) for 3 hr or 6 hr. HPLC-UV or HPLC-MS were used to determine test compound levels using peak area %. Results (Table 14) were reported as the percentage of test compound remaining after incubation in a given condition relative to test compound present at t=0 in the same condition.

Series [2] can be described thus: Stability of compounds in simulated gastric fluid (SGF). The series is classed as in vitro ADME. The note with it: simulated gastric fluid (3 mg/mL pepsin), incubation time 6 hr, relative to t=0. Here is the method:
as §1

Series [3] is described as follows: Determination of compound Cmax and AUC after oral gavage (plasma LC-MS/MS). The series is classed as in vivo, Sprague-Dawley rats. The note with it: Sprague-Dawley, rat, plasma, po, Structure (I) examples, Table 15, actual oral dose 3-15 mg/kg, plasma 0.5-4 h. As for the experimental part: Sprague-Dawley rats were orally gavaged with test article at a nominal dose of 2.5 or 10 mg/kg and blood was collected at 0.5, 1, 2 and 4 h. Blood samples were processed to plasma using K2EDTA as an anticoaglulant. Plasma samples were treated with acetonitrile containing an internal standard, precipitated proteins removed by centrifugation. Supernatants were analyzed by LC-MS/MS and compound concentrations were determined by interpolation from a standard curve prepared in plasma. All compounds were orally dosed at the dosage shown, and pharmacokinetic parameters determined.
(§2) Sprague-Dawley rats were orally gavaged with test article at a nominal dose of 2.5 or 10 mg/kg and blood was collected at 0.5, 1, 2 and 4 h. Blood samples were processed to plasma using K2EDTA as an anticoaglulant. Plasma samples were treated with acetonitrile containing an internal standard, precipitated proteins removed by centrifugation. Supernatants were analyzed by LC-MS/MS and compound concentrations were determined by interpolated from a standard curve prepared in plasma. All compounds were orally dosed at the dosage shown, and pharmacokinetic parameters determined.
as §2

`O=C(CCOCCOCCOCCOCCSCc1cccc(C(=O)Nc2ccc(N3CCCCC3)cc2-c2cc(C(=O)NCc3cccc(C(F)(F)F)c3)ccn2)c1)NCCN1CCOCC1` [Example 146, 2-(2-(3-(20-morpholino-17-oxo-5,8,11,14-tetraoxa-2-thia-18-azaicosyl)benzamido)-5-(piperidin-1-yl)phenyl)-N-(3-(trifluoromethyl)benzyl)isonicotinamide]: the IC50 against rat NaP2b (SLC34A2) is 1 to 7.94 µM. Also, the “% remaining, SIF” value in series [1] is recorded as 60-80%. Moreover, the “% remaining, SGF” value in series [2] is recorded as over 80%. Further, in series [3], the AUC was under 10 ng·h/mL and the Cmax was under 10 ng/mL.
`O=C(NCc1cccc(C(F)(F)F)c1)c1ccnc(-c2cc(N3CCCCC3)ccc2NC(=O)c2cccc(CSCCOCCOCCOCCOCCC(=O)N3CCN(CCOCCO)CC3)c2)c1` [Example 147] showed an IC50 at rat NaP2b (SLC34A2) of 1 to 7.94 µM. Further, the “% remaining, SIF” value in series [1] is over 80%. Also, the “% remaining, SGF” value in series [2] is on record as over 80%. In series [3], this compound returned an AUC of under 10 ng·h/mL and a Cmax of under 10 ng/mL.
On rat NaP2b (SLC34A2), `COCCOCCOCCOCCOCCOCCOCCOCCNC(=O)CCOCCOCCOCCOCCSCc1cccc(C(=O)Nc2ccc(N3CCCCC3)cc2-c2cc(C(=O)NCc3cccc(C(F)(F)F)c3)ccn2)c1` [Example 148, 2-(2-(3-(27-oxo-2,5,8,11,14,17,20,23,30,33,36,39-dodecaoxa-42-thia-26-azatritetracontan-43-yl)benzamido)-5-(piperidin-1-yl)phenyl)-N-(3-(trifluoromethyl)benzyl)isonicotinamide] showed an IC50 of 1 to 7.94 µM. In addition, the “% remaining, SIF” value in series [1] was over 80%. Further, the “% remaining, SGF” value in series [2] is over 80%. In series [3], the AUC was under 10 ng·h/mL and the Cmax was under 10 ng/mL.
At rat NaP2b (SLC34A2), `O=C(CCOCCOCCOCCOCCSCc1cccc(C(=O)Nc2ccc(N3CCCCC3)cc2-c2cc(C(=O)NCc3cccc(C(F)(F)F)c3)ccn2)c1)NCCOCCOCCOCCOCCOCCOCCOCCO` [Example 149, 2-(2-(3-(41-hydroxy-17-oxo-5,8,11,14,21,24,27,30,33,36,39-undecaoxa-2-thia-18-azahentetracontyl)benzamido)-5-(piperidin-1-yl)phenyl)-N-(3-(trifluoromethyl)benzyl)isonicotinamide] showed an IC50 of 1 to 7.94 µM. Moreover, the “% remaining, SIF” value in series [1] is given as over 80%. In series [2], the “% remaining, SGF” value is over 80%. In series [3], the AUC was under 10 ng·h/mL and the Cmax was under 10 ng/mL.
In turn, `CN(CCN1CCOCC1)C(=O)CCOCCOCCOCCOCCSCc1cccc(C(=O)Nc2ccc(N3CCCCC3)cc2-c2cc(C(=O)NCc3cccc(C(F)(F)F)c3)ccn2)c1` [Example 150, 2-(2-(3-(18-methyl-20-morpholino-17-oxo-5,8,11,14-tetraoxa-2-thia-18-azaicosyl)benzamido)-5-(piperidin-1-yl)phenyl)-N-(3-(trifluoromethyl)benzyl)isonicotinamide] gave an IC50 against rat NaP2b (SLC34A2) of 10 to 31.6 µM. The “% remaining, SIF” value in series [1] was over 80%. Further, the “% remaining, SGF” value in series [2] is recorded as over 80%. In series [3], this compound yielded an AUC of under 10 ng·h/mL and a Cmax of under 10 ng/mL.
Regarding `O=C(NCc1cccc(C(F)(F)F)c1)c1ccnc(-c2cc(N3CCCCC3)ccc2NC(=O)c2cccc(CSCCOCCOCCOCCOCCC(=O)N(CCO)CCO)c2)c1` [Example 151, 2-(2-(3-(20-hydroxy-18-(2-hydroxyethyl)-17-oxo-5,8,11,14-tetraoxa-2-thia-18-azaicosyl)benzamido)-5-(piperidin-1-yl)phenyl)-N-(3-(trifluoromethyl)benzyl)isonicotinamide], the IC50 against rat NaP2b (SLC34A2) was 1 to 7.94 µM. Further, in series [1], the “% remaining, SIF” value is reported as 40-60%. Also, in series [2], the “% remaining, SGF” value was over 80%. In series [3], this compound gave an AUC of under 10 ng·h/mL and a Cmax of under 10 ng/mL.
Turning to `CCN(CC)CCN(C)C(=O)CCOCCOCCOCCOCCSCc1cccc(C(=O)Nc2ccc(N3CCCCC3)cc2-c2cc(C(=O)NCc3cccc(C(F)(F)F)c3)ccn2)c1` [Example 152, 2-(2-(3-(21-ethyl-18-methyl-17-oxo-5,8,11,14-tetraoxa-2-thia-18,21-diazatricosyl)benzamido)-5-(piperidin-1-yl)phenyl)-N-(3-(trifluoromethyl)benzyl)isonicotinamide], the IC50 at rat NaP2b (SLC34A2) is 1 to 7.94 µM. For the same compound, the “% remaining, SIF” value in series [1] is recorded as over 80%. Further, the “% remaining, SGF” value in series [2] is listed as over 80%. Besides, in series [3], the AUC is under 10 ng·h/mL and the Cmax is under 10 ng/mL.
In turn, `CCN(CC)c1ccc(NC(=O)c2cccc(CSCCOCCOCCOCCOCCC(=O)O)c2)c(-c2cc(C(=O)N[C@H]3CCCc4ccccc43)ccn2)c1` [Example 157, (S)-1-(3-(4-(diethylamino)-2-(4-(1,2,3,4-tetrahydronaphthalen-1-ylcarbamoyl)pyridin-2-yl)phenylcarbamoyl)phenyl)-5,8,11,14-tetraoxa-2-thiaheptadecan-17-oic acid] showed an IC50 on rat NaP2b (SLC34A2) of under 1 µM. The “% remaining, SIF” value in series [1] is recorded as over 80%. Besides, the “% remaining, SGF” value in series [2] is given as over 80%. In series [3], this compound showed an AUC of under 10 ng·h/mL and a Cmax of under 10 ng/mL.
The compound `CCN(CC)c1ccc(NC(=O)c2cccc(CSCCOCCOCCOCCOCCC(=O)NCCOCCOCCOCCOCCOCCOCCOCCOC)c2)c(-c2cc(C(=O)N[C@H]3CCCc4ccccc43)ccn2)c1` [Example 157.1, (S)-2-(5-(diethylamino)-2-(3-(27-oxo-2,5,8,11,14,17,20,23,30,33,36,39-dodecaoxa-42-thia-26-azatritetracontan-43-yl)benzamido)phenyl)-N-(1,2,3,4-tetrahydronaphthalen-1-yl)isonicotinamide] had an IC50 on rat NaP2b (SLC34A2) of 1 to 7.94 µM. The “% remaining, SIF” value in series [1] is over 80%. Also, the “% remaining, SGF” value in series [2] is listed as over 80%. Further, in series [3], the AUC is under 30 ng·h/mL and the Cmax is under 10 ng/mL.
`CCN(CC)c1ccc(NC(=O)c2cccc(CSCCOCCOCCOCCOCCC(=O)NCCOCCOCCOCCOCCOCCOCCOCCOC)c2)c(-c2cc(C(=O)NCc3cccc(C(F)(F)F)c3)ccn2)c1` [Example 165, 2-(5-(diethylamino)-2-(3-(27-oxo-2,5,8,11,14,17,20,23,30,33,36,39-dodecaoxa-42-thia-26-azatritetracontan-43-yl)benzamido)phenyl)-N-(3-(trifluoromethyl)benzyl)isonicotinamide] showed an IC50 against rat NaP2b (SLC34A2) of 1 to 7.94 µM. In series [1], the “% remaining, SIF” value was over 80%. In series [2], the “% remaining, SGF” value is over 80%. In series [3], this compound showed an AUC of under 30 ng·h/mL and a Cmax of under 10 ng/mL.
In turn, `CN(CCN1CCC[C@H]1C(=O)N(C)CCOCCOCCOCCC(=O)O)C(=O)c1cccc(C(=O)Nc2ccc(N3CCCCC3)cc2-c2cc(C(=O)N[C@H]3CCCc4ccccc43)ccn2)c1` [Example 191, 2-Methyl-1-((S)-1-(2-(N-methyl-3-((4-(piperidin-1-yl)-2-(4-(((S)-1,2,3,4-tetrahydronaphthalen-1-yl)carbamoyl)pyridin-2-yl)phenyl)carbamoyl)benzamido)ethyl)pyrrolidin-2-yl)-1-oxo-5,8,11-trioxa-2-azatetradecan-14-oic acid] had an IC50 against rat NaP2b (SLC34A2) of 10 to 31.6 µM. In addition, the “% remaining, SIF” value in series [1] is reported as over 80%. In addition, in series [2], the “% remaining, SGF” value was over 80%. Also, in series [3], the AUC was under 10 ng·h/mL and the Cmax is under 10 ng/mL.

As usually defined, the IC50 is the concentration at which inhibition is half-maximal. Read a high IC50 as weaker potency. As a reminder, the AUC is the area under the concentration-time curve, a measure of exposure. A low value points to low exposure. In general, Cmax refers to the highest concentration seen after dosing.

The values above are taken from patent publication US20140023611A1 (priority 2010, published 2014).
